The source of these data is publication PMC4641600, “Novel Activities of Select NSAID R-Enantiomers against Rac1 and Cdc42 GTPases” (PLoS ONE, 2015).

The target in series [1] is T1, human COX-1 (Homo sapiens, UniProt P23219).
T1 construct: purchased CEREP Laboratories (contract assay); host or cells: Sf-9
The series can be described thus: Cyclooxygenase assay (CEREP), PGE2 formation. Type of series: biochemical. To be noted: recombinant enzyme, 4 μM arachidonic acid.

Series [2] has as its system Rac1 membrane localization. The series can be described thus: Rac1 immunolocalization, OvCa433 cells. Type of series: cell-based, human.
In series [3] the target is Rab2 (Homo sapiens, UniProt P61019). Kind of series: Dose response, BODIPY-GTP binding. To be noted: 10 nM to 100 µM.
Chain of Rab2 (P61019 whole entry, species assumed): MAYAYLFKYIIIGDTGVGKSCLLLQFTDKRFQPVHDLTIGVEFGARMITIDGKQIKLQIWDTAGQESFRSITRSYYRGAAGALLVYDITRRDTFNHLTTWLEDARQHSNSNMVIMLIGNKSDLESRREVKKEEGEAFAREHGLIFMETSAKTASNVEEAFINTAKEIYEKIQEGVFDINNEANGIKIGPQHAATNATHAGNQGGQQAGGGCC
In series [4] the target is T2, Rac1 (Mus musculus, UniProt P63001).
T2 construct: endogenous in cells; host or cells: Swiss 3T3
The series can be described thus: GLISA, Swiss 3T3 cells. The class given is cell-based.

For series [5], the target named is T3, Rac1 (Homo sapiens, UniProt P63000).
T3 construct: endogenous in cells; host or cells: HeLa
Kind of series: GLISA, OvCa433 cells. The class given is cell-based. To be noted: 300 μM, 1 h pretreatment, 10 ng/ml EGF 2 min.

In series [6] the test system is OvCa429 and OvCa433 cells. The series can be described thus: Boyden chamber cell migration assay. The class given is cell-based, human. To be noted: Homo sapiens; estimated from limited dose response data; read-out: IC50 migration Rac1/Cdc42 dependent (est).
The conditions of series [7]: typical oral dosing (S-Naproxen 500 mg; 6-MNA 750-20000 mg of nabumetone); ref Roche Investigator’s brochure, 9, 10, 17-19, 21, 23; cited from earlier work.
In series [8] the target is T4, Cdc42 (Mus musculus, UniProt P60766).
T4 construct: endogenous in cells; host or cells: Swiss 3T3
T4 sequence (P60766 whole entry): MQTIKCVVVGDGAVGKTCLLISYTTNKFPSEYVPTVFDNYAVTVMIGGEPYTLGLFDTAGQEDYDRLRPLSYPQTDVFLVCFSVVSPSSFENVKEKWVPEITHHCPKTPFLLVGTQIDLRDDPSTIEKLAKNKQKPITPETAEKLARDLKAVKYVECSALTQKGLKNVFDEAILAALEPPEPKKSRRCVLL
Kind of series: GLISA, Swiss 3T3 cells. Conditions: Swiss-3T3; at 300 µM. The class given is cell-based.

For series [9], the target named is H-Ras wt (Homo sapiens, UniProt P01112). Kind of series: Dose response, BODIPY-GTP binding. To be noted: 10 nM to 100 µM. The procedure: For multiplex analyses of small GTPases, 4 μm diameter glutathione-beads (GSH-beads) distinguished by seven different intensities of red fluorescence were used according to our previously described protocols. The GST-GTPases included the following eight Ras-related small GTPases: Rab2 wt, Rab7 wt, Cdc42 wt, Cdc42Q61L activating mutant, H-Ras wt, H-RasG12V, Rac1 wt and Rac1Q61L activating mutant. Briefly, Prestwick Chemical Library® compounds were tested at 10 μM compound and 1% DMSO final concentrations. After a 10 min pre-incubation with the compound BODIPY- FL-GTP (100 nM final) was added to each well and bead associated fluorescence was measured. Sample analysis was conducted with a HyperCyt® high throughput flow cytometry platform. Flow cytometric light scatter at 488 nm and fluorescence emission at 530 +/− 20 nm (FL1) and 665 +/− 10 nm (FL8) were collected on a Cyan ADP flow cytometer (Beckman Coulter, Fullerton, CA). IDLQuery software was used to determine the compound activity in each well. Gating based on forward scatter (FS) and side scatter (SS) parameters was used to identify singlet bead populations. Gating based on FL8 emission distinguishes the beads coated with different proteins, and the median FL1 fluorescence per bead population were calculated. A compound was considered a “potential active” if the change in BODIPY-FL-GTP binding differed greater than 20% from that measured in DMSO treated controls.
Chain of H-Ras wt (P01112 whole entry): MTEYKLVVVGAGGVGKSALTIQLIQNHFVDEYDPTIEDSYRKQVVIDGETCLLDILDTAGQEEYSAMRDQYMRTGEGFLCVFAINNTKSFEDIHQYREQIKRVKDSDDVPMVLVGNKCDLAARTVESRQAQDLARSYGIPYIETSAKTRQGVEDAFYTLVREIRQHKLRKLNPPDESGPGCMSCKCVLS
Test compounds identified for follow-up after the primary screen were tested at dilutions ranging from 10 nM to 100 μM final concentration against individual GTPases in multiplex and single-plex assays. Compounds tested in dose response assays were serially diluted 1:3 a total of eight times from a starting concentration of 10 mM giving a 9-point dilution series in DMSO.
bConfirmatory screens entailed dose response assays conducted in a multiplex format with eight GTPases tested as for primary screen. BODIPY-GTP-binding activity was
measured in the presence of 10 nM to 100 µM of each of 11 test compounds (4 primary screen hits and 7 additional NSAIDs considered to have chemical similarity to GTPase
active compounds). GST-GFP coated beads served as a control to detect non-specific dissociation or denaturation caused by compound addition–none of the tested NSAIDs had
any effect on bead-GST-protein binding. EC50 values were determined using Prism to determine dose response fits as shown in Figure 1 of main text; fits have R2 > 0.9. Active
compounds based on same definition used as in primary screena. […]

Series [10] deals with Rac1 wt (Homo sapiens, UniProt P63000). Kind of series: Dose response, BODIPY-GTP binding. To be noted: 10 nM to 100 µM.
The target in series [11] is Rab7 (Homo sapiens, UniProt P51149). The series can be described thus: Dose response, BODIPY-GTP binding. Conditions: 10 nM to 100 µM.
Chain of Rab7 (P51149 whole entry, species assumed): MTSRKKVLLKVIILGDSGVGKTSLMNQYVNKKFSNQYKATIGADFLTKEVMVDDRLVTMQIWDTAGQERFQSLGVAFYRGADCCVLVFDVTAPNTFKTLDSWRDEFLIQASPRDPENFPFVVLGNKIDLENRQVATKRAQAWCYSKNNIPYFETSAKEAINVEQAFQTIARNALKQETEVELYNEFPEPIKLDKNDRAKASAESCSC
For series [12], the target named is Cdc42Q61L activating mutant (Homo sapiens, UniProt P60953, Q61L). Kind of series: Dose response, BODIPY-GTP binding.
Chain of Cdc42Q61L activating mutant (P60953 whole entry Q61L): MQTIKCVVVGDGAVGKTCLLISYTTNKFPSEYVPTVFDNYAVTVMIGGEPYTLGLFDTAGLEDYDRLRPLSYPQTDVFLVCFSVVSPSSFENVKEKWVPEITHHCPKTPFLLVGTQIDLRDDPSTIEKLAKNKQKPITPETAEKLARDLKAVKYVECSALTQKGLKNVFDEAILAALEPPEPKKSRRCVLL

SMILES strings stand for the structures.

T1 sequence (P23219 24-599): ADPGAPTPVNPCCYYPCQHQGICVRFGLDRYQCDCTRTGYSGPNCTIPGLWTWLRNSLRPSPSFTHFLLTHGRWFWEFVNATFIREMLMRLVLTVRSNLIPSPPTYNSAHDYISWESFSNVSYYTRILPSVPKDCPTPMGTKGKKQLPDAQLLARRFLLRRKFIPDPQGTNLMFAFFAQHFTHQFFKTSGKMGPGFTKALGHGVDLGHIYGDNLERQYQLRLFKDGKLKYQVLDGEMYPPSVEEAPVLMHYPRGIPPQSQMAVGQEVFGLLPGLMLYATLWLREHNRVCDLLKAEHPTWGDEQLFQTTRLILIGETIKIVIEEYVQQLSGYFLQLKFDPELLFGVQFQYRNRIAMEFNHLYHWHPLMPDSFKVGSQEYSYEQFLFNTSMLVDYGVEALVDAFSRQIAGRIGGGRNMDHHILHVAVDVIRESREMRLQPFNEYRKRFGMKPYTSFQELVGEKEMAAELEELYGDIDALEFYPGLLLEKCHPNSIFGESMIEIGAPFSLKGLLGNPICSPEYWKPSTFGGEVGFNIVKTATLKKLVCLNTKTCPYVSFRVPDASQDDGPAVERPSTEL

What is called inhibition is the drop in the measured response relative to a control, in per cent. Higher therefore signals a strong effect. As a reminder, the EC50 is the concentration at which the effect is half-maximal. On to `COc1ccc2cc(CC(=O)O)ccc2c1` [6-MNA, 6-methoxy-2-napthalene acetic acid], for which the IC50 is 28 µM in series [1] and greater than 300 µM in series [6]. Besides, the “Rac1 membrane localization” value in series [2] (300 μM) was “no effect”. Also, the “Rac PM Localiz.” value in [2] (immunofluorescence quantified using ImageJ) is listed as 98%. The “Rab2 EC50” value in series [3] is “inactive”. In series [4] (300 μM, 15 min or 1 h (either time point)), the “EGF-mediated Rac1 activation” value was “no inhibitory effect”. Besides, the inhibition at 300 µM was 0% in series [4] (Swiss-3T3, at 300 µM) and 0% in [8]. The “Rac1 activation by EGF” value in [5] is reported as “no or limited effect”. The “Serum Cmax” value in [7] is 41200 ng/mL. Besides, in [9], the “H-Ras wt EC50” value is “inactive”. Besides, the “Rac1 wt EC50” value in series [10] was “inactive”. Besides, in series [11], the “Rab7 EC50” value is “inactive”. Besides, the “activity against the constitutively active Cdc42 mutant” value in series [12] is on record as “weak activity”. Also, the EC50 in series [12] (10 nM to 100 µM, read-out: Cdc42 (act) EC50) is 12.3 µM.
